Here are results for 56 compounds from ChEMBL document CHEMBL3882724 (2013).

Usually inhibition stands for the percentage by which the read-out fell short of the control.

Molecules are shown by their SMILES.

The target in the data set is T1, CYP21 (steroid 21-hydroxylase) (Homo sapiens, UniProt P08686).
T1 sequence (P08686 whole entry): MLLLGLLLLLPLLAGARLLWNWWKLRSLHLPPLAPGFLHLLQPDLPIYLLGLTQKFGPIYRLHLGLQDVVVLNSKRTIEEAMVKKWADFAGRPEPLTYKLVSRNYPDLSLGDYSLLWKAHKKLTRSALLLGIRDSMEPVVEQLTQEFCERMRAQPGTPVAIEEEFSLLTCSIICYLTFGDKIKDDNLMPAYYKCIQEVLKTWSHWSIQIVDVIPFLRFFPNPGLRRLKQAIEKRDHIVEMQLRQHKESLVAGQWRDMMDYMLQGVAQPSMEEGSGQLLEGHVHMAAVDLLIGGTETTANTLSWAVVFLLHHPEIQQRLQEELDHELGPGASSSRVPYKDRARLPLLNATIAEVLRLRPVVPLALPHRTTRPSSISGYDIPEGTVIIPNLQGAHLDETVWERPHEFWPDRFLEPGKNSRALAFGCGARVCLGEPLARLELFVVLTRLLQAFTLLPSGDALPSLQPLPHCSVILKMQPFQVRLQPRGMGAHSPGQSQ
Kind of data set: Inhibition of human CYP21 transfected in HEK293 cells assessed as decrease in conversion of progesterone to 11-deoxycorticosterone preincubated for 5 hrs followed by progesterone addition measured after 20 hrs by ELISA. More on the design: concentration or dose not given beside the values. The class given is cell-based. The settings on record: HEK293 cells transfected with human CYP21, probe progesterone. (In general: ELISA stands for enzyme-linked immunosorbent assay.)

Take `C[C@]12CC[C@@H](NC(=O)c3nccs3)CC1=CC[C@@H]1[C@@H]2CC[C@]2(C)C(n3ccnc3)=CC[C@@H]12`: the inhibition at 20 h lay within 10 to 50%.

As for `CC(=O)Nc1cncc(C2=CC[C@H]3[C@@H]4CC=C5C[C@@H](O)CC[C@]5(C)[C@H]4CC[C@]23C)c1`, the inhibition at 20 h was below 10%.

Regarding `C[C@]1(O)CC[C@@]2(C)C(=CC[C@@H]3[C@@H]2CC[C@]2(C)C(c4cncc(F)c4)=CC[C@@H]32)C1`, the inhibition at 20 h lay in the range of 10 to 50%.

In the case of `CC1C[C@@]2(C)C(CC[C@@H]3[C@@H]2CC[C@]2(C)C(c4cccnc4)=CC[C@@H]32)C(C)C1O` (stereo partly specified), the inhibition at 20 h is 10 to 50%.

Regarding `C[C@]12CC[C@H](O)CC1=CC[C@@H]1[C@@H]2CC[C@]2(C)C(c3cncc(NS(C)(=O)=O)c3)=CC[C@@H]12`, the inhibition at 20 h is below 10%.

In the case of `C[C@]12CCC(=O)C=C1CC[C@@H]1[C@@H]2CC[C@]2(C)C(c3cncc(C(F)F)c3)=CC[C@@H]12`, the inhibition at 20 h is 10 to 50%.

For `C[C@]12CC[C@@H](NS(=O)(=O)C3CC3)CC1=CC[C@@H]1[C@@H]2CC[C@]2(C)C(c3cccnc3)=CC[C@@H]12`, the inhibition at 20 h was 10 to 50%.

As for `CCNC(=O)N[C@@H]1CC[C@@]2(C)C(=CC[C@@H]3[C@@H]2CC[C@]2(C)C(c4cncc(F)c4)=CC[C@@H]32)C1`, the inhibition at 20 h lay in the range of 10 to 50%.

For `COC1CC[C@@]2(C)C(=CC[C@@H]3[C@@H]2CC[C@]2(C)C(c4cncc(C)c4)=CC[C@@H]32)C1` (stereo partly specified), the inhibition at 20 h was below 10%.

Turning to `C[C@]12CC[C@@H](NC(=O)c3nccs3)CC1=CC[C@@H]1[C@@H]2CC[C@]2(C)C(c3cccnc3)=CC[C@@H]12`, the inhibition at 20 h was 10 to 50%.

Consider `C[C@]12CCNC(=O)CC1CC[C@@H]1[C@@H]2CC[C@]2(C)C(c3cncc(F)c3)=CC[C@@H]12` (stereo partly specified), for which the inhibition at 20 h was in the range of 10 to 50%.

Take `Cc1ccncc1C1=CC[C@H]2[C@@H]3CC[C@H]4CNC(=O)CC[C@]4(C)[C@H]3CC[C@]12C`: the inhibition at 20 h lay in the range of 10 to 50%.

For the compound `CCc1ccncc1C1=CC=C2[C@@H]3CCC4CNC(=O)CC[C@]4(C)[C@H]3CC[C@]12C` (stereo partly specified), the inhibition at 20 h lay within 10 to 50%.

With `C[C@H]1C2CC[C@@H]3[C@H](CC[C@]4(C)C(c5cncc(C(F)F)c5)=CC[C@@H]34)[C@@]2(C)CC[C@@H]1O` (stereo partly specified), the inhibition at 20 h was in the range of 10 to 50%.

As for `C[C@]12CC[C@H]3[C@@H](CC(Nc4nccs4)C45CC4CC[C@]35C)[C@@H]1CC=C2c1cccnc1` (stereo partly specified), the inhibition at 20 h fell in the range of 10 to 50%.

In the case of `CCNC(=O)N[C@@H]1CC[C@@]2(C)C(CC[C@@H]3[C@@H]2CC[C@]2(C)C(n4ccnc4)=CC[C@@H]32)C1` (stereo partly specified), the inhibition at 20 h was at least 50%.

In the case of `CC1C[C@@H]2[C@H](CC[C@]3(C)C(c4cncc(C(F)F)c4)=CC[C@@H]23)[C@@]2(C)C=CC(=O)C=C12` (stereo partly specified), the inhibition at 20 h was in the range of 10 to 50%.

As for `CCC(=O)O[C@H]1CC[C@@]2(C)C(=CC[C@H]3C4=CC=C(c5cccnc5)[C@@]4(C)CC[C@@H]32)C1`, the inhibition at 20 h was 10 to 50%.

As for `C[C@]12CCC(O)(CCCO)CC1CC[C@@H]1[C@@H]2CC[C@]2(C)C(c3cccnc3)=CC[C@@H]12` (stereo partly specified), the inhibition at 20 h lay in the range of 10 to 50%.

With `C[C@@]1(O)CC[C@@]2(C)C(CC[C@@H]3[C@@H]2CC[C@]2(C)C(c4cncc(Cl)c4)=CC[C@@H]32)C1` (stereo partly specified), the inhibition at 20 h was in the range of 10 to 50%.

As for `COc1cncc(C2=CC[C@H]3[C@@H]4CC[C@H]5C[C@@H](OC)CC[C@]5(C)[C@H]4CC[C@]23C)c1`, the inhibition at 20 h fell in the range of 10 to 50%.

For `CC(C)(C)C(=O)O[C@H]1CC[C@@]2(C)C(=CC[C@H]3C4=CC=C(c5cccnc5)[C@@]4(C)CC[C@@H]32)C1`, the inhibition at 20 h is 10 to 50%.

For the compound `CC1(C)C2=CC[C@@H]3[C@H](CC[C@]4(C)C(c5cccnc5)=CC[C@@H]34)[C@@]2(C)CC/C1=N\O`, the inhibition at 20 h was below 10%.

In the case of `C[C@@]1(O)CC[C@@]2(C)C(CC[C@@H]3[C@@H]2CC[C@]2(C)C(c4cccnc4)=CC[C@@H]32)C1` (stereo partly specified), the inhibition at 20 h was below 10%.

Regarding `CC1C[C@@H]2[C@H](CC[C@]3(C)C(c4cccnc4)=CC[C@@H]23)[C@@]2(C)CC[C@@](C)(O)CC12` (stereo partly specified), the inhibition at 20 h was in the range of 10 to 50%.

Turning to `CNC1CC[C@@]2(C)[C@@H](CC[C@@H]3[C@@H]2CC[C@]2(C)C(c4cccnc4)=CC[C@@H]32)C1` (stereo partly specified), the inhibition at 20 h fell in the range of 10 to 50%.

In the case of `C[C@@H]1C2CC[C@@H]3[C@H](CC[C@]4(C)C(c5cncc(C(F)F)c5)=CC[C@@H]34)[C@@]2(C)CC[C@H]1O` (stereo partly specified), the inhibition at 20 h is below 10%.

With `C[C@]12CC[C@H]3[C@@H](CCC45CC4NC(=O)CC[C@]35C)[C@@H]1CC=C2c1cccnc1` (stereo partly specified), the inhibition at 20 h is below 10%.

With `C[C@]12CC[C@@H](N=[N+]=[N-])CC1CC[C@@H]1[C@@H]2CC[C@]2(C)C(c3cccnc3)=CC[C@@H]12` (stereo partly specified), the inhibition at 20 h lay within 10 to 50%.

For the compound `CCc1ccncc1C1=CC=C2[C@@H]3CCC4C[C@@H](OC(C)=O)CC[C@]4(C)[C@H]3CC[C@]12C` (stereo partly specified), the inhibition at 20 h lay in the range of 10 to 50%.

With `C[C@]12CC[C@H]3[C@@H](CC=C4C=CCC[C@@]43C)C1=CC=C2c1cccnc1`, the inhibition at 20 h lay within 10 to 50%.

Regarding `CCc1ccncc1C1=CC=C2[C@@H]3CCC4CC(=O)CC[C@]4(C)[C@H]3CC[C@]12C` (stereo partly specified), the inhibition at 20 h lay within 10 to 50%.

For `C[C@]12CCC(=O)C=C1C(C1CC1)C[C@@H]1[C@@H]2CC[C@]2(C)C(c3cccnc3)=CC[C@@H]12` (stereo partly specified), the inhibition at 20 h is below 10%.

For the compound `C[C@]1(O)CC[C@@]2(C)C(=CC[C@@H]3[C@@H]2CC[C@]2(C)C(c4cccnc4)=CC[C@@H]32)C1`, the inhibition at 20 h was at least 50%.

`CN1CCC(C(=O)O[C@H]2CC[C@@]3(C)C(=CC[C@H]4C5=CC=C(c6cccnc6)[C@@]5(C)CC[C@@H]43)C2)CC1`: the inhibition at 20 h lay in the range of 10 to 50%.

For the compound `CCNC(=O)O[C@H]1CC[C@@]2(C)C(=CC[C@H]3C4=CC=C(c5cccnc5)[C@@]4(C)CC[C@@H]32)C1`, the inhibition at 20 h is below 10%.

Turning to `CCc1ccncc1C1=CC[C@H]2[C@@H]3CC[C@H]4CC(=O)NCC[C@]4(C)[C@H]3CC[C@]12C`, the inhibition at 20 h was 10 to 50%.

Regarding `CC1C[C@H]2[C@@H]3CC=C(c4cncc(F)c4)[C@@]3(C)CC[C@@H]2[C@@]2(C)CC[C@H](O)CC12O` (stereo partly specified), the inhibition at 20 h is 10 to 50%.

Turning to `C[C@]12CC(F)(F)CC1CC[C@@H]1[C@@H]2CC[C@]2(C)C(c3cccnc3)=CC[C@@H]12` (stereo partly specified), the inhibition at 20 h is 10 to 50%.

With `CC1CC2[C@H](CC[C@]3(C)C(c4cccnc4)=CC[C@@H]23)[C@@]2(C)CCC(C)(O)C=C12` (stereo partly specified), the inhibition at 20 h lay in the range of 10 to 50%.

Take `Cc1cc(C2=CC[C@H]3[C@@H]4CC=C5C[C@@H](O)CC[C@]5(C)[C@H]4CC[C@]23C)cnc1F`: the inhibition at 20 h is below 10%.

Consider `C[C@]12CC[C@H]3[C@@H](CC=C4C[C@@H](O)CC[C@@]43C)C1=CC=C2c1cncc(Cl)c1`, for which the inhibition at 20 h was 10 to 50%.

For the compound `CC1C(O)CC[C@@]2(C)C1CC[C@@H]1[C@@H]2CC[C@]2(C)C(c3cncc(F)c3)=CC[C@@H]12` (stereo partly specified), the inhibition at 20 h is below 10%.

In the case of `Cc1ccncc1C(=O)O[C@H]1CC[C@@]2(C)C(=CC[C@H]3C4=CC=C(c5cccnc5)[C@@]4(C)CC[C@@H]32)C1`, the inhibition at 20 h fell in the range of 10 to 50%.

On to `CCNC(=S)N[C@@H]1CC[C@@]2(C)C(=CC[C@@H]3[C@@H]2CC[C@]2(C)C(c4cccnc4)=CC[C@@H]32)C1`, for which the inhibition at 20 h lay within 10 to 50%.

For `CN1C(=O)CC[C@@]2(C)C1=CC[C@@H]1[C@@H]2CC[C@]2(C)C(c3cnccc3F)=CC[C@@H]12`, the inhibition at 20 h fell in the range of 10 to 50%.

In the case of `CN1C(=O)CC[C@@]2(C)C1=CC[C@@H]1[C@@H]2CC[C@]2(C)C(c3cncc(C(F)F)c3)=CC[C@@H]12`, the inhibition at 20 h was below 10%.

Turning to `CC1=C2CC[C@@H]3[C@H](CC[C@]4(C)C(c5cccnc5)=CC[C@@H]34)[C@@]2(C)CC/C1=N\O`, the inhibition at 20 h lay in the range of 10 to 50%.

Turning to `C[C@]12CC[C@H]3[C@@H](CCC45CC4C(O)CC[C@]35C)[C@@H]1CC=C2c1cncc(F)c1` (stereo partly specified), the inhibition at 20 h fell in the range of 10 to 50%.

For the compound `Cc1cnc(F)c(C2=CC[C@H]3[C@@H]4CCC5=CC(=O)CC[C@]5(C)[C@H]4CC[C@]23C)c1`, the inhibition at 20 h was 10 to 50%.

With `Cc1ccncc1C1=CC=C2[C@@H]3CC[C@H]4CC(=O)NCC[C@]4(C)[C@H]3CC[C@]12C`, the inhibition at 20 h lay within 10 to 50%.

In the case of `Cc1ccncc1C1=CC=C2C3CCC4C[C@@H](O)CC[C@]4(C)C3CC[C@]12C` (stereo partly specified), the inhibition at 20 h fell in the range of 10 to 50%.

For the compound `CC1C[C@H]2C3=CC=C(c4cncc(C(F)F)c4)[C@@]3(C)CC[C@@H]2[C@@]2(C)CCC(=O)C=C12` (stereo partly specified), the inhibition at 20 h was below 10%.

As for `C[C@]12CC[C@H](NC(=O)C(F)(F)F)CC1CC[C@@H]1[C@@H]2CC[C@]2(C)C(c3cccnc3)=CC[C@@H]12` (stereo partly specified), the inhibition at 20 h lay within 10 to 50%.

For the compound `C[C@]12CC[C@H]3[C@@H](CC(c4ccccc4)C4=CC(=O)CC[C@@]43C)C1=CC=C2c1cccnc1` (stereo partly specified), the inhibition at 20 h lay within 10 to 50%.

As for `C[C@]12CC[C@H](O)CC1=CC[C@@H]1[C@@H]2CC[C@]2(C)C(c3cncc(C#N)c3)=CC[C@@H]12`, the inhibition at 20 h was in the range of 10 to 50%.
